# In the supplement of paper PMC7214452:
# Legend:
# Assay in all cases: normalized area under the dose-response curve (viability relative to DMSO control) (fraction); higher = less sensitive (more viable cells)
# Conditions in all cases: exposure time not given
# [1] = system: AMO1 (cancer type: MM)
# Protocol: (§1)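 25 myeloma and 15 non-Hodgkin lymphoma cell lines were exposed to each of 76 drugs as 7-point log dilutions (0.01 nM–10 µM) in duplicate. Viability was read with CellTiter-Glo and normalised to DMSO (0.1%) and staurosporine (10 µM) plate controls. Normalised AUC was calculated by the trapezoidal method relative to the negative control.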
# [2] = system: EJM (cancer type: MM)
# Protocol: as §1
# [3] = system: FR4 (cancer type: MM)
# Protocol: as §1
# [4] = system: Granta-519 (cancer type: Mantle)
# Protocol: as §1
# [5] = system: HuT 78 (cancer type: TCL)
# Protocol: as §1
# [6] = system: JJN3 (cancer type: MM)
# Protocol: as §1
# [7] = system: JVM2 (cancer type: Mantle)
# Protocol: as §1
# [8] = system: JeKo-1 (cancer type: Mantle)
# Protocol: as §1
# [9] = system: KMS11 (cancer type: MM)
# Protocol: as §1
# [10] = system: KMS12PE (cancer type: MM)
# Protocol: as §1
# [11] = system: KMS18 (cancer type: MM)
# Protocol: as §1
# [12] = system: KMS26 (cancer type: MM)
# Protocol: as §1
# [13] = system: KMS28BM (cancer type: MM)
# Protocol: as §1
# [14] = system: KMS28PE (cancer type: MM)
# Protocol: as §1
# [15] = system: KMS34 (cancer type: MM)
# Protocol: as §1
# [16] = system: Karpas-299 (cancer type: TCL)
# Protocol: as §1
# [17] = system: L363 (cancer type: MM)
# Protocol: as §1
# [18] = system: LP1 (cancer type: MM)
# Protocol: as §1
# [19] = system: MM1.R (cancer type: MM)
# Protocol: as §1
# [20] = system: MM1.S (cancer type: MM)
# Protocol: as §1
# [21] = system: Mino (cancer type: Mantle)
# Protocol: as §1
# [22] = system: My-La (cancer type: TCL)
# Protocol: as §1
# [23] = system: NCI-H929 (cancer type: MM)
# Protocol: as §1
# [24] = system: OCI-LY1 (cancer type: DLBCL)
# Protocol: as §1
# [25] = system: OCI-LY19 (cancer type: DLBCL)
# Protocol: as §1
# [26] = system: OCI-LY3 (cancer type: DLBCL)
# Protocol: as §1
# [27] = system: OCI-MY5 (cancer type: MM)
# Protocol: as §1
# [28] = system: OCI-MY5/CRBN (cancer type: MM)
# Protocol: as §1
# [29] = system: OCI-MY5/Vec (cancer type: MM)
# Protocol: as §1
# [30] = system: OCI-MY7 (cancer type: MM)
# Protocol: as §1
# [31] = system: OPM2 (cancer type: MM)
# Protocol: as §1
# [32] = system: RPMI 8226 (cancer type: MM)
# Protocol: as §1
# [33] = system: SKMM2 (cancer type: MM)
# Protocol: as §1
# [34] = system: SR-786 (cancer type: TCL)
# Protocol: as §1
# [35] = system: SU-DHL1 (cancer type: TCL)
# Protocol: as §1
# [36] = system: SU-DHL2 (cancer type: DLBCL)
# Protocol: as §1
# [37] = system: SU-DHL6 (cancer type: DLBCL)
# Protocol: as §1
# [38] = system: Se-Ax (cancer type: TCL)
# Protocol: as §1
# [39] = system: U266 (cancer type: MM)
# Protocol: as §1
# [40] = system: XG2 (cancer type: MM)
# Protocol: as §1
Structure (SMILES),normalized area under the dose-response curve [1],normalized area under the dose-response curve [2],normalized area under the dose-response curve [3],normalized area under the dose-response curve [4],normalized area under the dose-response curve [5],normalized area under the dose-response curve [6],normalized area under the dose-response curve [7],normalized area under the dose-response curve [8],normalized area under the dose-response curve [9],normalized area under the dose-response curve [10],normalized area under the dose-response curve [11],normalized area under the dose-response curve [12],normalized area under the dose-response curve [13],normalized area under the dose-response curve [14],normalized area under the dose-response curve [15],normalized area under the dose-response curve [16],normalized area under the dose-response curve [17],normalized area under the dose-response curve [18],normalized area under the dose-response curve [19],normalized area under the dose-response curve [20],normalized area under the dose-response curve [21],normalized area under the dose-response curve [22],normalized area under the dose-response curve [23],normalized area under the dose-response curve [24],normalized area under the dose-response curve [25],normalized area under the dose-response curve [26],normalized area under the dose-response curve [27],normalized area under the dose-response curve [28],normalized area under the dose-response curve [29],normalized area under the dose-response curve [30],normalized area under the dose-response curve [31],normalized area under the dose-response curve [32],normalized area under the dose-response curve [33],normalized area under the dose-response curve [34],normalized area under the dose-response curve [35],normalized area under the dose-response curve [36],normalized area under the dose-response curve [37],normalized area under the dose-response curve [38],normalized area under the dose-response curve [39],normalized area under the dose-response curve [40]
CS(=O)(=O)c1ccc(C(=O)Nc2ccc(Cl)c(-c3ccccn3)c2)c(Cl)c1 [Vismodegib],0.871,0.901,1.02,0.924,0.9,0.906,0.819,0.878,0.93,0.94,0.995,0.838,0.948,0.871,0.801,0.895,0.859,0.906,0.88,0.85,0.911,0.873,0.87,0.967,0.827,0.939,0.826,0.942,0.922,0.94,0.932,0.889,1.01,0.858,0.807,0.94,0.864,0.765,0.896,0.867
O=C(CCCCCCC(=O)Nc1ccccc1)NO [Vorinostat],0.482,0.607,0.521,0.717,0.43,0.649,0.598,0.421,0.627,0.63,0.855,0.551,0.56,0.542,0.554,0.426,0.635,0.637,0.55,0.46,0.449,0.672,0.35,0.432,0.443,0.469,0.4,0.517,0.427,0.51,0.767,0.721,0.781,0.533,0.519,0.528,0.672,0.331,0.738,0.692
